This is an account of results in patent US20070203212A1, “METHOD OF TREATING OSTEOARTHRITIS” (WARNER-LAMBERT COMPANY, priority 2002, published 2007).

The subject of data set [1] is leukotriene B4 (LTB4) expression. Kind of data set: LTB4 expression from calcium ionophore-stimulated rat basophilic leukemia cells. In kind it is cell-based.
Data set [2] concerns prostaglandin-F2a (PGF2a) expression. In words: PGF2a expression from calcium ionophore-stimulated rat basophilic leukemia cells. The format is cell-based.
The nature of data set [3]: Blood pressure in normal healthy humans. The format is in vivo, human.
In data set [4] the test system is experimental osteoarthritis (anterior cruciate ligament section). Kind of data set: Experimental osteoarthritis in rabbit (EOA in Rabbit). The format is in vivo. The settings on record: 30 or 10 mg/kg/dose three times per day, 8 weeks; 'if these EOA studies were performed'. As for the experimental part: Normal rabbits are anaesthetized and anteromedial incisions of the right knees performed. The anterior cruciate ligaments are visualized and sectioned. The wounds are closed and the animals are housed in individual cages, exercised, and fed ad libitum. Rabbits are given either vehicle (water) or 6-(5-carboxy-5-methyl-hexyloxy)-2,2-dimethyl-hexanoic acid, calcium salt, or a pharmaceutically acceptable salt thereof, (10 rabbits per group). Each group is dosed three times per day with the 6-(5-carboxy-5-methyl-hexyloxy)-2,2-dimethyl-hexanoic acid, calcium salt, or a pharmaceutically acceptable salt thereof, group receiving 30-mg/kg/dose or 10-mg/kg/dose. The rabbits are euthanized 8 weeks after surgery and the proximal end of the tibia and the distal end of the femur are removed from each animal.
The cartilage changes on the femoral condyles and tibial plateaus are graded separately under a dissecting microscope (Stereozoom, Bausch & Lomb, Rochester, N.Y.). […] The surface area changes are measured and expressed in mm^2. […]
Representative specimens of synovial membrane from the medial and lateral knee compartments are dissected from underlying tissues. […] The average score is calculated and considered as a unit for the whole knee. […]
Mean values and SEM are calculated and statistical analysis is done using the Mann-Whitney U-test.

The subject of data set [5] is carrageenan-induced thermal hyperalgesia. In words: Carrageenan-induced thermal hyperalgesia (CITH), paw withdrawal latency. In kind it is in vivo, rat. The settings on record: single oral dose 30 mg/kg on Day 1, 4 hours post dose. As to the method: Male Sprague Dawley rats (200-300 g), obtained from Charles River, were housed in groups of 2 under a 12 hour light/dark cycle with food and water ad libitum. Animals were allowed to acclimate to the test room one hour prior to testing.
Thermal hyperalgesia was assessed using the rat plantar test (apparatus from Univ. California, San Diego) following a modified method of Hargreaves et al., 1988. Rats were habituated to the apparatus, which consisted of three perspex boxes that individually housed […] on an elevated glass table. A mobile radiant heat source (halogen lamp) was located under the glass table and focused onto the hind paw. Paw withdrawal latencies (PWL) were recorded in seconds (“s”). An automatic cut off point of 22.5 s was set to prevent tissue damage. The mean of 2-3 PWL was taken at each time point for both hind paws of each animal. The apparatus was calibrated to give a PWL of approximately 10 s before carrageenan administration.
After basal PWL were determined, animals receive an intraplantar 100 μL of 10 mg/mL) into the right hind paw. Lambda carrageenan (Sigma Chemical Co.) was dissolved in isotonic saline 5 minutes prior to injecting. PWL were reassessed following the same protocol 2 hours post carrageenan (this time point represented the start of peak hyperalgesia) to ascertain that hyperalgesia had developed. 6-(5-Carboxy-5-methyl-hexyloxy)-2,2-dimethyl-hexanoic acid, calcium salt was then administered orally via oral dosing needles 2.5 hours post carrageenan injection, and PWL were taken again at 30- or 60-minute intervals post drug administration for 6 hours.
Data consisted of the mean of 2-3 reads/paw for individual animals. Group data was the compiled individual means. Percent inhibition was calculated as follows for each time point: (mean drug treated−mean control)/(mean baseline−mean control)×100.

`CC(C)(CCCCOCCCCC(C)(C)C(=O)[O-])C(=O)[O-].[Ca+2]` [CI-1027, 6-(5-carboxy-5-methyl-hexyloxy)-2,2-dimethyl-hexanoic acid, calcium salt]: in data set [1], the “inhibition of LTB4 expression” value is listed as “does not inhibit”. Besides, in data set [2], the “inhibition of PGF2a expression” value is on record as “does not inhibit”. In addition, the “effect on blood pressure” value in data set [3] is listed as “no effect or perhaps even slightly (1-5 mmHg) decreases”. The “lesion size on tibial plateaus / cartilage damage” value in data set [4] is recorded as “reduce the size of the lesion on the tibial plateaus”. In addition, the “Inhibition of Pain (% versus control), CITH (paw withdrawal latency)” value in data set [5] came to 65 ± 20%.
